In ChEMBL document CHEMBL3992545, “Discovery and dimeric approach of novel Natriuretic Peptide Receptor A (NPR-A) agonists” (Bioorg Med Chem, 2017):
One block for each compound: values may come before it. The source made the active and inactive calls. The rule behind the calls is not given here.

Legend:
[1] = molecular target: T1, Atrial natriuretic peptide receptor 1 (Homo sapiens, UniProt P16066); assay: Agonist activity at human NPR-A expressed in CHO cells assessed as increase in cGMP accumulation after 30 mins by radioimmunoassay; format: cell-based
T1 sequence (P16066 whole entry): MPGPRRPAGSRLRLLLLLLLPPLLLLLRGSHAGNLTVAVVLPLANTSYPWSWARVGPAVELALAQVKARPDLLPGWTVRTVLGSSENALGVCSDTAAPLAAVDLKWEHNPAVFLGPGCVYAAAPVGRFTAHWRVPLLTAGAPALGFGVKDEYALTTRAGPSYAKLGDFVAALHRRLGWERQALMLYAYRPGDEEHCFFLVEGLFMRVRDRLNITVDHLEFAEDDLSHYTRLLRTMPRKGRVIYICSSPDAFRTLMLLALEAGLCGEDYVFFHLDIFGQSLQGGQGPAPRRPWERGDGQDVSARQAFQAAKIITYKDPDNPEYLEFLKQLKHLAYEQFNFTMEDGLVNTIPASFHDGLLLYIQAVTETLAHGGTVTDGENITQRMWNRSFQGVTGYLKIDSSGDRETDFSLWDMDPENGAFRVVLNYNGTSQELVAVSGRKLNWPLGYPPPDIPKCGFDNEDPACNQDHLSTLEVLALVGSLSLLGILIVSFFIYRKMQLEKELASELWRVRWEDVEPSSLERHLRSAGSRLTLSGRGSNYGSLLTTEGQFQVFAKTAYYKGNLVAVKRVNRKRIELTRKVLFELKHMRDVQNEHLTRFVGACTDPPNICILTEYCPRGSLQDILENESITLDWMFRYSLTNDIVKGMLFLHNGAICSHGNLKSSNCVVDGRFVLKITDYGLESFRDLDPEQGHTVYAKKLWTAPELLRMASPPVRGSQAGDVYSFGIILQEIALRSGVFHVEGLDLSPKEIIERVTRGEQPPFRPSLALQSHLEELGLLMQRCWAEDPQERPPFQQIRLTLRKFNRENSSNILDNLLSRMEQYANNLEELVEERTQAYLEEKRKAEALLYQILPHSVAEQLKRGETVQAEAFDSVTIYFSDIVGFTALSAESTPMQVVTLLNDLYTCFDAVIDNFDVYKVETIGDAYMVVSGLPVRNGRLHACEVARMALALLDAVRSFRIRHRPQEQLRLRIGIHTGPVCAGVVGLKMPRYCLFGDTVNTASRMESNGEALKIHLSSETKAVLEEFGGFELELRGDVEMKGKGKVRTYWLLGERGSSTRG

Rattus norvegicus [2] = assay: Diuretic activity in iv dosed Crl:CD(SD) rat assessed as increase in urine volume administered as bolus dose measured up to 60 mins; format: functional, organism-based
[3] = molecular target: T2, Atrial natriuretic peptide receptor 1 (Rattus norvegicus, UniProt P18910); assay: Agonist activity at rat NPR-A expressed in CHO cells assessed as increase in cGMP accumulation after 15 mins by fluorescent assay; format: cell-based
T2 sequence (P18910 whole entry): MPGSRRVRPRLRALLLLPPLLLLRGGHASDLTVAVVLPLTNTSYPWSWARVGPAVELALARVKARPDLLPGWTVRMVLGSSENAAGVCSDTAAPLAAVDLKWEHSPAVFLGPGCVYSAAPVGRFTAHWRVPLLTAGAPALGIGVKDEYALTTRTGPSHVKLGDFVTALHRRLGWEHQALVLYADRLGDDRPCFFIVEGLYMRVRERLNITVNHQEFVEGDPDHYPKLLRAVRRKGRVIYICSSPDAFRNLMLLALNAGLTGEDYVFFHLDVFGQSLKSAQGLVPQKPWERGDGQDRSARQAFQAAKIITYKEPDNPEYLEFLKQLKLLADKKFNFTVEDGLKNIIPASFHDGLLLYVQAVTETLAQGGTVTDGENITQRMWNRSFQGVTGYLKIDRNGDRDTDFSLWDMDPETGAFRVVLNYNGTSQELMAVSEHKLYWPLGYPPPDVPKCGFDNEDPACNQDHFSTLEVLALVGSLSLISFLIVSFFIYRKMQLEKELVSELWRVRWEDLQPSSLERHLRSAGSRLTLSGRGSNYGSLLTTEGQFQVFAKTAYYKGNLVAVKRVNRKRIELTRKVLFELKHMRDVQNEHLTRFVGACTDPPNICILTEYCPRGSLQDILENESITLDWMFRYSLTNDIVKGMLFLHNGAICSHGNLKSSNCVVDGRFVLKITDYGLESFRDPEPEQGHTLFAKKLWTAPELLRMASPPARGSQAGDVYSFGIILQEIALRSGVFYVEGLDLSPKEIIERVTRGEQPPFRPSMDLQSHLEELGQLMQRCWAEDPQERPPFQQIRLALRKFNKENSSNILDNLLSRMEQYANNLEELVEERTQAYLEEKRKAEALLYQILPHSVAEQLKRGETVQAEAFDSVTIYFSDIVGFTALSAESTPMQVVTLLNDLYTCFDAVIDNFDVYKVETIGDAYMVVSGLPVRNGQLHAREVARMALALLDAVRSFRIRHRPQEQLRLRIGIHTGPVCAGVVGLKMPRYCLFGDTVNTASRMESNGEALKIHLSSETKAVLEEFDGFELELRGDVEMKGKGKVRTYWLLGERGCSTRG

Rattus norvegicus [4] = assay: In vivo agonist activity at NPR-A in Crl:CD(SD) rat assessed as increase in cGMP accumulation in lung at 30 ug/kg/min, iv; format: functional, organism-based
Rattus norvegicus [5] = assay: In vivo agonist activity at NPR-A in iv dosed Crl:CD(SD) rat assessed as increase in cGMP accumulation in kidney administered as infusion over 30 mins by radioimmunoassay; format: functional, organism-based
Rattus norvegicus [6] = assay: In vivo agonist activity at NPR-A in Crl:CD(SD) rat assessed as increase in cGMP accumulation in kidney at 1 ug/kg/min, iv administered as infusion over 30 mins by radioimmunoassay; format: functional, organism-based
Rattus norvegicus [7] = assay: Diuretic activity in Crl:CD(SD) rat assessed as increase in urine volume at 10 ug/kg, iv administered as bolus dose measured up to 60 mins; format: functional, organism-based

SMILES: C/N=C(\N(C)C)N(C)c1nc(Nc2ccccc2)nc(N2C(N)=NC(=O)C2CC(C)C)n1 (configuration not stated)
EC50 [1]: 64000 nM

SMILES: CC1C(=O)N=C(N)N1c1nc(NC(=N)N)nc(Nc2ccc(Nc3nc(NC(=N)N)nc(N4C(N)=NC(=O)C4C)n3)cc2)n1 (configuration not stated)
EC50 [1]: > 10000 nM

SMILES: CC[C@H](C)[C@@H]1NC(=O)[C@H](CCCNC(=N)N)NC(=O)[C@H](CC(=O)O)NC(=O)[C@H](CCSC)NC(=O)[C@H](CCCNC(=N)N)NC(=O)CNC(=O)CNC(=O)[C@H](Cc2ccccc2)NC(=O)[C@@H](NC(=O)[C@H](CO)NC(=O)[C@H](CO)NC(=O)[C@H](CCCNC(=N)N)NC(=O)[C@H](CCCNC(=N)N)NC(=O)[C@H](CC(C)C)NC(=O)[C@@H](N)CO)CSSC[C@@H](C(=O)N[C@@H](CC(N)=O)C(=O)N[C@@H](CO)C(=O)N[C@@H](Cc2ccccc2)C(=O)N[C@@H](CCCNC(=N)N)C(=O)N[C@@H](Cc2ccc(O)cc2)C(=O)O)NC(=O)CNC(=O)[C@H](CC(C)C)NC(=O)CNC(=O)[C@H](CO)NC(=O)[C@H](CCC(N)=O)NC(=O)[C@H](C)NC(=O)CNC1=O
Activity (Rattus norvegicus [6]): Active
Activity (Rattus norvegicus [7]): Active

SMILES: CC(C)CC1C(=O)N=C(N)N1c1nc(NC(=N)N)nc(Nc2ccccc2)n1 (configuration not stated)
EC50 [1]: 4000 nM

Second part, led by results:

EC50 [3]: 76 nM
EC50 [1]: 8.1 nM
SMILES: CC(C)CC1C(=O)N=C(N)N1c1nc(NC(=N)N)nc(NC2CCC(Nc3nc(NC(=N)N)nc(N4C(N)=NC(=O)C4CC(C)C)n3)CC2)n1 (configuration not stated)
Activity (Rattus norvegicus [2]): Dose-dependent effect
Activity (Rattus norvegicus [4]): Active
Activity (Rattus norvegicus [5]): Dose-dependent effect

EC50 [3]: 23 nM
EC50 [1]: 2 nM
SMILES: CCCCC1C(=O)N=C(N)N1c1nc(NC(=N)N)nc(Nc2ccc(Nc3nc(NC(=N)N)nc(N4C(N)=NC(=O)C4CCCC)n3)cc2)n1 (configuration not stated)
Activity (Rattus norvegicus [2]): Dose-dependent effect
Activity (Rattus norvegicus [4]): Active
Activity (Rattus norvegicus [5]): Dose-dependent effect

EC50 [1]: 5.8 nM
SMILES: CC(C)CC1C(=O)N=C(N)N1c1nc(NC(=N)N)nc(Nc2ccc(Nc3nc(NC(=N)N)nc(N4C(N)=NC(=O)C4CC(C)C)n3)cc2)n1 (configuration not stated)

EC50 [1]: 19 nM
SMILES: CC(C)CC1C(=O)N=C(N)N1c1nc(NC(=N)N)nc(Nc2ccc(Nc3nc(NC(=N)N)nc(N4C(N)=NC(=O)C4C)n3)cc2)n1 (configuration not stated)
